From US6664214B1, “Uracil compounds and use thereof” (Sumitomo Chemical Company, Limited, priority 1999, dated 2003)

Key:
large crabgrass [1] = assay: Test Example 5: foliar treatment on upland field (Table 6); format: in vivo, Digitaria sanguinalis; set-up: key: 0: little difference in the degree of germination or growth between the treated plants and the untreated plants at the time of examination; 10: the treated plants died completely or their germination or growth was completely inhibited; details: 125 g/ha, 19 days after application, index 0 to 10
Protocol: In the examples, the compounds are identified by the Compound Numbers as in Tables 1 to 3. […] A pot for plug seedlings seeded with large crabgrass. The test plant was grown in a greenhouse for 14 days, then transplanted into a plastic pot having an area of 17×12 cm^2 and a depth of 7 cm, and further the test plants were grown in the greenhouse for 8 days. Then each of compounds listed below was formulated into an emulsifiable concentrate according to Formulation Example 2 and then diluted to the prescribed amount with water containing a spreading agent and the dilution was uniformly sprayed over the foliage of the test plants with sprayer at a rate of 1000 liters per hectare. After the application, the test plants were grown in the greenhouse for 19 days, and the herbicidal activity were determined.

barnyardgrass [2] = assay: Test Example 4: soil surface treatment on upland field (Table 5); format: in vivo, Echinochloa crus-galli; set-up: key: 0: little difference in the degree of germination or growth between the treated plants and the untreated plants at the time of examination; 10: the treated plants died completely or their germination or growth was completely inhibited; details: 500 g/ha active ingredient, examined 12 days after application, index 0-10
Excerpt: (§1) In the examples, the compounds are identified by the Compound Numbers as in Tables 1 to 3. […] A cylindrical plastic pot having a diameter of 10 cm and a depth of 10 cm was filled with soil and seeded ivyleaf morningglory, velvetleaf and barnyardgrass. Then each of compounds listed below was formulated into an emulsifiable concentrate according to Formulation Example 2 and then diluted to the prescribed amount with water and dilution was uniformly sprayed over the surface of the soil with sprayer at the rate of 1000 liters per hectare. After the application, the test plants were grown in a greenhouse for 12 days, and the herbicidal activity was examined.

velvetleaf [3] = assay: Test Example 2: soil surface treatment on upland field; format: in vivo, Abutilon theophrasti; details: 500 g/ha, 12 days after application
Excerpt: as §1, with “seeded with velvetleaf.” for “seeded ivyleaf morningglory, velvetleaf and barnyardgrass.”, “compounds 1-1, 2-1, 2-2, 3-1 and 3-101” for “compounds listed below”, “at a” for “at the”

barnyardgrass [4] = assay: Test Example 3: foliar treatment on upland field (Table 4); format: in vivo, Echinochloa crus-galli; set-up: key: 0: little difference in the degree of germination or growth between the treated plants and the untreated plants at the time of examination; 10: the treated plants died completely or their germination or growth was completely inhibited; details: 125 g/ha active ingredient, examined 16 days after application, index 0-10
Protocol: (§2) In the examples, the compounds are identified by the Compound Numbers as in Tables 1 to 3. […] A cylindrical plastic pot having a diameter of 10 cm and a depth of 10 cm was filled with soil and seeded with ivyleaf momingglory, velvetleaf and barnyardgrass. These test plants were grown in a greenhouse for 10 days. Then each of compounds listed below was formulated into an emulsifiable concentrate according to Formulation Example 2 and then diluted to the prescribed amount with water containing a spreading agent and the dilution was uniformly sprayed over the foliage of the test plants with sprayer at a rate of 1000 liters per hectare. After the application, the test plants were grown in the greenhouse for 16 days, and the herbicidal activity were determined.

ivyleaf morningglory [5] = assay: Test Example 1: foliar treatment on upland field; format: in vivo, Ipomoea hederacea; details: 125 g/ha, 8 days after application
Protocol: (§3) In the examples, the compounds are identified by the Compound Numbers as in Tables 1 to 3.
(§4) A cylindrical plastic pot having a diameter of 10 cm and a depth of 10 cm was filled with soil and seeded with ivyleaf momingglory, velvetleaf and bamyardgrass. These test plants were grown in a greenhouse for 9 days. Then each of compounds 1-1, 2-1, 2-2, 3-1 and 3-101 was formulated into an emulsifiable concentrate according to Formulation Example 2 and then diluted to the prescribed amount with water containing a spreading agent and the dilution was uniformly sprayed over the foliage of the test plants with sprayer at a rate of 1000 liters per hectare. After the application, the test plants were grown in the greenhouse for 8 days, and the herbicidal activity were determined.

giant foxtail = assay: Test Example 6: foliar treatment on upland field (Table 7); format: in vivo, Setaria faberi; set-up: key: 0: little difference in the degree of germination or growth between the treated plants and the untreated plants at the time of examination; 10: the treated plants died completely or their germination or growth was completely inhibited; details: 8 g/ha, 19 days after application, index 0 to 10
Protocol: (§5) In the examples, the compounds are identified by the Compound Numbers as in Tables 1 to 3. […] A plastic pot having a area of 27×20 cm^2 and a depth of 7.5 cm filled with soil, seeded with barnyardgrass. The test plant was grown in a greenhouse for 4 days. The seedlings of large crabgrass and giant foxtail, which were seeded into a pot for plug seedlings and grown in a greenhouse for 14 days, were transplanted into the plastic pot. The test plants, further, were grown in the greenhouse for 8 days. Then each of compound listed below was formulated into an emulsifiable concentrate according to Formulation Example 2 and then diluted to the prescribed amount with water containing a spreading agent and the dilution was uniformly sprayed over the foliage of the test plants with sprayer at a rate of 1000 liters per hectare. After the application, the test plants were grown in the greenhouse for 19 days, and the herbicidal activity were determined.

ivyleaf morningglory [6] = assay: Test Example 4: soil surface treatment on upland field (Table 5); format: in vivo, Ipomoea hederacea; set-up: key: 0: little difference in the degree of germination or growth between the treated plants and the untreated plants at the time of examination; 10: the treated plants died completely or their germination or growth was completely inhibited; details: 500 g/ha active ingredient, examined 12 days after application, index 0-10
Excerpt: as §1

velvetleaf [7] = assay: Test Example 3: foliar treatment on upland field (Table 4); format: in vivo, Abutilon theophrasti; set-up: key: 0: little difference in the degree of germination or growth between the treated plants and the untreated plants at the time of examination; 10: the treated plants died completely or their germination or growth was completely inhibited; details: 125 g/ha active ingredient, examined 16 days after application, index 0-10
Protocol: as §2

barnyardgrass [8] = assay: Test Example 1: foliar treatment on upland field; format: in vivo, Echinochloa crus-galli; details: 125 g/ha, 8 days after application
Protocol: as §3, §4

ivyleaf morningglory [9] = assay: Test Example 3: foliar treatment on upland field (Table 4); format: in vivo, Ipomoea hederacea; set-up: key: 0: little difference in the degree of germination or growth between the treated plants and the untreated plants at the time of examination; 10: the treated plants died completely or their germination or growth was completely inhibited; details: 125 g/ha active ingredient, examined 16 days after application, index 0-10
Protocol: as §2

barnyardgrass [10] = assay: Test Example 6: foliar treatment on upland field (Table 7); format: in vivo, Echinochloa crus-galli; set-up: key: 0: little difference in the degree of germination or growth between the treated plants and the untreated plants at the time of examination; 10: the treated plants died completely or their germination or growth was completely inhibited; details: 8 g/ha, 19 days after application, index 0 to 10
Protocol: as §5

large crabgrass [11] = assay: as above; format: in vivo, Digitaria sanguinalis; set-up: key: 0: little difference in the degree of germination or growth between the treated plants and the untreated plants at the time of examination; 10: the treated plants died completely or their germination or growth was completely inhibited; details: 8 g/ha, 19 days after application, index 0 to 10
Protocol: as §5

velvetleaf [12] = assay: Test Example 4: soil surface treatment on upland field (Table 5); format: in vivo, Abutilon theophrasti; set-up: key: 0: little difference in the degree of germination or growth between the treated plants and the untreated plants at the time of examination; 10: the treated plants died completely or their germination or growth was completely inhibited; details: 500 g/ha active ingredient, examined 12 days after application, index 0-10
Excerpt: as §1

velvetleaf [13] = assay: Test Example 1: foliar treatment on upland field; format: in vivo, Abutilon theophrasti; details: 125 g/ha, 8 days after application
Protocol: as §3, §4

SMILES	Herbicidal effect Large crabgrass (large crabgrass [1])	Herbicidal effect Barnyardgrass (barnyardgrass [2])	germination of velvetleaf (velvetleaf [3])	Herbicidal effect Barnyardgrass (barnyardgrass [4])	growth of ivyleaf morningglory (ivyleaf morningglory [5])	Herbicidal effect Giant foxtail (giant foxtail)	Herbicidal effect Ivyleaf morningglory (ivyleaf morningglory [6])	Herbicidal effect Velvetleaf (velvetleaf [7])	growth of barnyardgrass (barnyardgrass [8])	Herbicidal effect Ivyleaf morningglory (ivyleaf morningglory [9])	Herbicidal effect Barnyard-grass (barnyardgrass [10])	Herbicidal effect Large crabgrass (large crabgrass [11])	Herbicidal effect Velvetleaf (velvetleaf [12])	growth of velvetleaf (velvetleaf [13])
COC(=O)C(C)Oc1ccc(COc2cc(-n3c(=O)cc(C(F)(F)F)n(C)c3=O)c(F)cc2Cl)cc1 (stereo not shown) [Compound 1-1, methyl 2-[4-({2-chloro-4-fluoro-5-[3-methyl-2,6-dioxo-4-(trifluoromethyl)-1,2,3,6-tetrahydropyrimidine-1-yl]phenoxyl}methyl)phenoxy]propionate]	10	9	completely controlled	10	completely controlled	9	10	10	completely controlled	10	10	10	10	completely controlled
COC(=O)C(C)Oc1cccc(COc2cc(-n3c(=O)cc(C(F)(F)F)n(C)c3=O)c(F)cc2Cl)c1 (stereo not shown) [Compound 2-1, methyl 2-[3-({2-chloro-4-fluoro-5-[3-methyl-2,6-dioxo-4-(trifluoromethyl)-1,2,3,6-tetrahydropyrimidine-1-yl]phenoxy}methyl)phenoxy]propionate]	10	10	completely controlled	10	completely controlled	10	10	10	completely controlled	10	10	10	10	completely controlled
